{"source": "ChEMBL document CHEMBL1926576", "about": "“Fragment based lead discovery of small molecule inhibitors for the EPHA4 receptor tyrosine kinase” (Eur J Med Chem, 2012)", "key": {"[1]": {"molecular_target": "Serine/threonine-protein kinase Nek6 (Homo sapiens) (UniProt Q9HC98)", "assay": "Inhibition of NEK6 assessed as residual activity at 10 uM using [33P-ATP] by radiometric filter binding assay"}, "[2]": {"molecular_target": "Protein kinase C zeta type (Homo sapiens) (UniProt Q05513)", "sequence (Q05513 whole entry)": "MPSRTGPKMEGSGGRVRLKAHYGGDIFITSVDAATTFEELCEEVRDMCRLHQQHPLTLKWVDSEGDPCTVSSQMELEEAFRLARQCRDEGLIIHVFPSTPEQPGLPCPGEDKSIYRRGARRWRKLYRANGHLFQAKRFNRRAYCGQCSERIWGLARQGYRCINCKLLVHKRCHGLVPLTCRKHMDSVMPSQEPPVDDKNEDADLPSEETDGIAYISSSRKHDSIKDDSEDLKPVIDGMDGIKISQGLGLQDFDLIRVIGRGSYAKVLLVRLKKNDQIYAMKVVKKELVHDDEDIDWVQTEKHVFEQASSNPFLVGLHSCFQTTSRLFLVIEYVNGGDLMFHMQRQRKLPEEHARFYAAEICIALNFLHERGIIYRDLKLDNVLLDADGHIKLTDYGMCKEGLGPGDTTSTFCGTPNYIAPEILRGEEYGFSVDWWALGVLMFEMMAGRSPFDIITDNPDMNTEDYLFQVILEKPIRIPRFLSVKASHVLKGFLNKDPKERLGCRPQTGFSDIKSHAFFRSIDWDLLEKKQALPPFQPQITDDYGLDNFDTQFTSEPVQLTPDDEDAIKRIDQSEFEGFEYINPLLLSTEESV", "assay": "Inhibition of PKCzeta assessed as residual activity at 10 uM using [33P-ATP] by radiometric filter binding assay"}, "[3]": {"molecular_target": "Serine/threonine-protein kinase D1 (Homo sapiens) (UniProt Q15139)", "assay": "Inhibition of PKD1 assessed as residual activity at 10 uM using [33P-ATP] by radiometric filter binding assay"}, "[4]": {"molecular_target": "Receptor-interacting serine/threonine-protein kinase 2 (Homo sapiens) (UniProt O43353)", "assay": "Inhibition of RIPK2 assessed as residual activity at 10 uM using [33P-ATP] by radiometric filter binding assay"}, "[5]": {"molecular_target": "Ribosomal protein S6 kinase beta-1 (Homo sapiens) (UniProt P23443)", "assay": "Inhibition of S6K1 assessed as residual activity at 10 uM using [33P-ATP] by radiometric filter binding assay"}, "[6]": {"molecular_target": "Proto-oncogene tyrosine-protein kinase Src (Homo sapiens) (UniProt P12931)", "assay": "Inhibition of Src assessed as residual activity at 10 uM using [33P-ATP] by radiometric filter binding assay"}, "[7]": {"molecular_target": "SRSF protein kinase 1 (Homo sapiens) (UniProt Q96SB4)", "sequence (Q96SB4 whole entry)": "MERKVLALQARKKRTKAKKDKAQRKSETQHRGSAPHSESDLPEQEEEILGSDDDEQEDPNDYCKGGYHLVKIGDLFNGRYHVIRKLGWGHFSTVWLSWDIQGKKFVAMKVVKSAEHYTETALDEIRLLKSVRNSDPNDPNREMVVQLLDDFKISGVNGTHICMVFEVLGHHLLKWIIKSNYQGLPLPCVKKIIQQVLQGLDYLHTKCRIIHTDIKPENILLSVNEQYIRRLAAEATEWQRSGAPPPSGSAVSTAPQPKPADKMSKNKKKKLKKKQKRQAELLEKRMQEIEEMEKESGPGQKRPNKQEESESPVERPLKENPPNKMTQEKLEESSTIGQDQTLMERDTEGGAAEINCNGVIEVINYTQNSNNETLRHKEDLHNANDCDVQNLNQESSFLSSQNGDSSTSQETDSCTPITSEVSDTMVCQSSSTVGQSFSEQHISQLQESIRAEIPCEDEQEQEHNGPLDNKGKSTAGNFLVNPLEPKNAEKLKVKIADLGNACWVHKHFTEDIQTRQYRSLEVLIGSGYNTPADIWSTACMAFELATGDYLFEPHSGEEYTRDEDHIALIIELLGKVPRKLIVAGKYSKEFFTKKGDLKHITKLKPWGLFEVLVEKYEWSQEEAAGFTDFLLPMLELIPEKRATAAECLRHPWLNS", "assay": "Inhibition of SRPK1 assessed as residual activity at 10 uM using [33P-ATP] by radiometric filter binding assay"}, "[8]": {"molecular_target": "Tau-tubulin kinase 1 (Homo sapiens) (UniProt Q5TCY1)", "assay": "Inhibition of TTBK1 assessed as residual activity at 10 uM using [33P-ATP] by radiometric filter binding assay"}, "Ephrin type-A receptor 4": {"molecular_target": "Ephrin type-A receptor 4 (Homo sapiens, UniProt P54764)", "assay": "Inhibition of his-tagged EPHA4-mediated poly(Glu,Tyr) phosphorylation after 75 mins using E4:Y1 as substrate by fluorescence assay"}, "[9]": {"molecular_target": "Calcium/calmodulin-dependent protein kinase type 1 (Homo sapiens) (UniProt Q14012)", "sequence (Q14012 whole entry, looked up)": "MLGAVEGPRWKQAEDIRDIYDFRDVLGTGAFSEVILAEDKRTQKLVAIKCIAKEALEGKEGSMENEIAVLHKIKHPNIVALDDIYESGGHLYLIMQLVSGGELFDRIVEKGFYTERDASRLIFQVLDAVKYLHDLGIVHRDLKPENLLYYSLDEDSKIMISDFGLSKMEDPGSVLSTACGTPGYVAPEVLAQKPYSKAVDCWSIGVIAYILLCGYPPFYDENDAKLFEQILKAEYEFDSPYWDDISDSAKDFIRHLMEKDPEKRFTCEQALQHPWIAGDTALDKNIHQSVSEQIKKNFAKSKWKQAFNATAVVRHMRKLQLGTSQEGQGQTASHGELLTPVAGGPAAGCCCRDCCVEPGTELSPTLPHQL", "assay": "Inhibition of CAMK1 assessed as residual activity at 10 uM using [33P-ATP] by radiometric filter binding assay"}, "[10]": {"molecular_target": "Calcium/calmodulin-dependent protein kinase kinase 2 (Homo sapiens) (UniProt Q96RR4)", "assay": "Inhibition of CAMKKbeta assessed as residual activity at 10 uM using [33P-ATP] by radiometric filter binding assay"}, "[11]": {"molecular_target": "Serine/threonine-protein kinase Chk1 (Homo sapiens) (UniProt O14757)", "assay": "Inhibition of CHK1 assessed as residual activity at 10 uM using [33P-ATP] by radiometric filter binding assay"}, "[12]": {"assay": "Inhibition of CK2 assessed as residual activity at 10 uM using [33P-ATP] by radiometric filter binding assay"}, "[13]": {"molecular_target": "Death-associated protein kinase 1 (Homo sapiens) (UniProt P53355)", "assay": "Inhibition of DAPK1 assessed as residual activity at 10 uM using [33P-ATP] by radiometric filter binding assay"}, "[14]": {"molecular_target": "Eukaryotic elongation factor 2 kinase (Homo sapiens) (UniProt O00418)", "sequence (O00418 whole entry)": "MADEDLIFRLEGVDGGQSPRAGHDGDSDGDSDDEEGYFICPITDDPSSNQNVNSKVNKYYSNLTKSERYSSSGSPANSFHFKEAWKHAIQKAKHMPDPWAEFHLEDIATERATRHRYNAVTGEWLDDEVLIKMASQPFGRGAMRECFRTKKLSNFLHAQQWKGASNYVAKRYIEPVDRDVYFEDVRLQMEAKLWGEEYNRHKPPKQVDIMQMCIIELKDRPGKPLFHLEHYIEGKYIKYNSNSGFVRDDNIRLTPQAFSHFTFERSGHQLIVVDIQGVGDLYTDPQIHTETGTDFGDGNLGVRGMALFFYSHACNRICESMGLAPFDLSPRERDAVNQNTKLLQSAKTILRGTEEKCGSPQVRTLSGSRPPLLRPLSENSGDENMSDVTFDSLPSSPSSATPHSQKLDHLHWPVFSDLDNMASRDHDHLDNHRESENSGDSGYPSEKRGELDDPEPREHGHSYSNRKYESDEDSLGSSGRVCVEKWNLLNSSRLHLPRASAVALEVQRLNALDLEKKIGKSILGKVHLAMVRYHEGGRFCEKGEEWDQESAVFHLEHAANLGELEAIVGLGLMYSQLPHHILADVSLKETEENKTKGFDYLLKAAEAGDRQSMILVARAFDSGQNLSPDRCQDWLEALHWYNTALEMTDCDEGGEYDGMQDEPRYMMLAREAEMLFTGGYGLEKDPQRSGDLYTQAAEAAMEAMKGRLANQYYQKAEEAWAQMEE", "assay": "Inhibition of EF2K assessed as residual activity at 10 uM using [33P-ATP] by radiometric filter binding assay"}, "[15]": {"molecular_target": "Eukaryotic translation initiation factor 2-alpha kinase 3 (Homo sapiens) (UniProt Q9NZJ5)", "assay": "Inhibition of EIF2AK3 assessed as residual activity at 10 uM using [33P-ATP] by radiometric filter binding assay"}, "[16]": {"molecular_target": "Ephrin type-B receptor 1 (Homo sapiens) (UniProt P54762)", "sequence (P54762 whole entry)": "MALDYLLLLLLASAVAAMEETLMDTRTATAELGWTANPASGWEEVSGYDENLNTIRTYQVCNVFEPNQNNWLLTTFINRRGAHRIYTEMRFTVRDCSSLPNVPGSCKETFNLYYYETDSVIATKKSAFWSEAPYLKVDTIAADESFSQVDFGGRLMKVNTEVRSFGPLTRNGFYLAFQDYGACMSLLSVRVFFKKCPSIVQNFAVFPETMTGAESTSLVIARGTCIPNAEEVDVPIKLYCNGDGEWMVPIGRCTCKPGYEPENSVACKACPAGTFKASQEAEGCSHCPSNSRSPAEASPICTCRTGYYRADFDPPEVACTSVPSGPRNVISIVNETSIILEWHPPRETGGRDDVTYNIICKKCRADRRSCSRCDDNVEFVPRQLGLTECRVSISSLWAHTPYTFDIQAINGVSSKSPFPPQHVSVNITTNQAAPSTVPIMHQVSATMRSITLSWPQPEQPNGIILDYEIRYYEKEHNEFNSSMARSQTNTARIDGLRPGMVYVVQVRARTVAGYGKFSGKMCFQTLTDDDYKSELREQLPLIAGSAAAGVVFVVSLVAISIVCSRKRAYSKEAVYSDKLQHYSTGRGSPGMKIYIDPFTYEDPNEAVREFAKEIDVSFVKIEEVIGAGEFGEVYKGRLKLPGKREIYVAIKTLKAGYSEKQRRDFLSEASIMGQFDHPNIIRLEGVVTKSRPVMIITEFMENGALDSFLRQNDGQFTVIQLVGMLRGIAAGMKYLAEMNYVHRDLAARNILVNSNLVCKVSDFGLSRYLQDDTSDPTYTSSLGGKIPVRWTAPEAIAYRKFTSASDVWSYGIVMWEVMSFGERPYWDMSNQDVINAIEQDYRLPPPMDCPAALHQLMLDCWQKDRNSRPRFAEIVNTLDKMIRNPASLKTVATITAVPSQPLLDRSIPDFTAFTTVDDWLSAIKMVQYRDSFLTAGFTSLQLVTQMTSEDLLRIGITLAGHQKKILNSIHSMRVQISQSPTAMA", "assay": "Inhibition of EPHB1 assessed as residual activity at 10 uM using [33P-ATP] by radiometric filter binding assay"}, "[17]": {"molecular_target": "Mitogen-activated protein kinase kinase kinase kinase 2 (Homo sapiens) (UniProt Q12851)", "assay": "Inhibition of GCK assessed as residual activity at 10 uM using [33P-ATP] by radiometric filter binding assay"}, "[18]": {"molecular_target": "Inhibitor of nuclear factor kappa-B kinase subunit beta (Homo sapiens) (UniProt O14920)", "sequence (O14920 whole entry)": "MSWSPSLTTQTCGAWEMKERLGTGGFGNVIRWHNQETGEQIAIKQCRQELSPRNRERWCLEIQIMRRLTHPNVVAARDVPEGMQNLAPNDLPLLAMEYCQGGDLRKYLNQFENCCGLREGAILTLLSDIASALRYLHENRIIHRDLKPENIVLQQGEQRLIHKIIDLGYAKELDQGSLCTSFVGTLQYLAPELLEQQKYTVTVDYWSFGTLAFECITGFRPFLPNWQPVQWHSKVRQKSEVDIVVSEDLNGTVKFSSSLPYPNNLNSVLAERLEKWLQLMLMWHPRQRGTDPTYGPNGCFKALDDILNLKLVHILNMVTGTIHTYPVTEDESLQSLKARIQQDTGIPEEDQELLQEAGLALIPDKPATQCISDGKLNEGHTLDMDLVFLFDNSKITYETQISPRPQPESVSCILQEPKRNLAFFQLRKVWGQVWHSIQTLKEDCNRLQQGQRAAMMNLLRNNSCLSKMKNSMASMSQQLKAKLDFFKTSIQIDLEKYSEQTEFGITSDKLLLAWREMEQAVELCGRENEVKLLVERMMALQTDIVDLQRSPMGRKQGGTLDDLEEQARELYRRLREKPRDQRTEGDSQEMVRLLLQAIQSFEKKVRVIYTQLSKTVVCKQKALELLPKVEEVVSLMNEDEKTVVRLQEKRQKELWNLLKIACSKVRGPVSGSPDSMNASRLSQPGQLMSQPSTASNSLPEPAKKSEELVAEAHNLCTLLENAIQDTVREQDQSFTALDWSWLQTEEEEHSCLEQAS", "assay": "Inhibition of IKK-beta assessed as residual activity at 10 uM using [33P-ATP] by radiometric filter binding assay"}, "[19]": {"molecular_target": "Mitogen-activated protein kinase 8 (Homo sapiens) (UniProt P45983)", "assay": "Inhibition of JNK1 assessed as residual activity at 10 uM using [33P-ATP] by radiometric filter binding assay"}, "[20]": {"molecular_target": "Mitogen-activated protein kinase 9 (Homo sapiens) (UniProt P45984)", "sequence (P45984 whole entry, looked up)": "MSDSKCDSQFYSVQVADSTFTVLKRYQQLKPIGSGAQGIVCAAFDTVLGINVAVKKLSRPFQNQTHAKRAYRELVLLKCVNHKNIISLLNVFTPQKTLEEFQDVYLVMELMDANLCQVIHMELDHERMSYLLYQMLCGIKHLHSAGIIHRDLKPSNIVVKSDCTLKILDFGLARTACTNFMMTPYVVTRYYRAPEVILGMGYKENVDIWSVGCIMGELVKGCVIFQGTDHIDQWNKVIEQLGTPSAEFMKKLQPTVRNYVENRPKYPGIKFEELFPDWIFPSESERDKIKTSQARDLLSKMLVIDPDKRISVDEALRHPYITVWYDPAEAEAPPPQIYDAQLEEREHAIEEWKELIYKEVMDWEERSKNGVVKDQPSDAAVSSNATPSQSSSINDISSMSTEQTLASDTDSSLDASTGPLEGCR", "assay": "Inhibition of JNK2 assessed as residual activity at 10 uM using [33P-ATP] by radiometric filter binding assay"}, "[21]": {"molecular_target": "MAP kinase-activated protein kinase 3 (Homo sapiens) (UniProt Q16644)", "sequence (Q16644 whole entry, looked up)": "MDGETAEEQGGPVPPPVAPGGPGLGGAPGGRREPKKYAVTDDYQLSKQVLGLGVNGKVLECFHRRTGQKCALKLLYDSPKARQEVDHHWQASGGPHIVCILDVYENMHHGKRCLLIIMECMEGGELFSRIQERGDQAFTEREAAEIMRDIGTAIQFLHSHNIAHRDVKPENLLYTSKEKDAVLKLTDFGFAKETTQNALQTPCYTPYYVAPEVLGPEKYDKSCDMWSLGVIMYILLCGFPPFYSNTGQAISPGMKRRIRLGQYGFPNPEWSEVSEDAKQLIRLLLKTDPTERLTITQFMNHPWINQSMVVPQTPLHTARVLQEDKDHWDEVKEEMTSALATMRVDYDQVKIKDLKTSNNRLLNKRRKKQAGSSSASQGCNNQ", "assay": "Inhibition of MAPKAP-K3 assessed as residual activity at 10 uM using [33P-ATP] by radiometric filter binding assay"}, "[22]": {"molecular_target": "Dual specificity mitogen-activated protein kinase kinase 6 (Homo sapiens) (UniProt P52564)", "assay": "Inhibition of MKK6 assessed as residual activity at 10 uM using [33P-ATP] by radiometric filter binding assay"}, "[23]": {"molecular_target": "Mitogen-activated protein kinase kinase kinase 11 (Homo sapiens) (UniProt Q16584)", "assay": "Inhibition of MLK3 assessed as residual activity at 10 uM using [33P-ATP] by radiometric filter binding assay"}, "[24]": {"molecular_target": "3-phosphoinositide-dependent protein kinase 1 (Homo sapiens) (UniProt O15530)", "assay": "Inhibition of PDK1 assessed as residual activity at 10 uM using [33P-ATP] by radiometric filter binding assay"}}}
{"smiles": "Cc1ccc(F)cc1-c1nc2[nH]nc(N)c2c2c1CCCC2", "values": [{"measurement": "Activity", "setting": "[1]", "value": 86, "unit": "%"}, {"measurement": "Activity", "setting": "[2]", "value": 106, "unit": "%"}, {"measurement": "Activity", "setting": "[3]", "value": 63, "unit": "%"}, {"measurement": "Activity", "setting": "[4]", "value": 17, "unit": "%"}, {"measurement": "Activity", "setting": "[5]", "value": 103, "unit": "%"}, {"measurement": "Activity", "setting": "[6]", "value": 25, "unit": "%"}, {"measurement": "Activity", "setting": "[7]", "value": 89, "unit": "%"}, {"measurement": "Activity", "setting": "[8]", "value": 94, "unit": "%"}, {"measurement": "IC50", "setting": "Ephrin type-A receptor 4", "value": 4.5, "unit": "µM"}, {"measurement": "Activity", "setting": "[9]", "value": 75, "unit": "%"}, {"measurement": "Activity", "setting": "[10]", "value": 89, "unit": "%"}, {"measurement": "Activity", "setting": "[11]", "value": 100, "unit": "%"}, {"measurement": "Activity", "setting": "[12]", "value": 93, "unit": "%"}, {"measurement": "Activity", "setting": "[13]", "value": 101, "unit": "%"}, {"measurement": "Activity", "setting": "[14]", "value": 114, "unit": "%"}, {"measurement": "Activity", "setting": "[15]", "value": 82, "unit": "%"}, {"measurement": "Activity", "setting": "[16]", "value": 4, "unit": "%"}, {"measurement": "Activity", "setting": "[17]", "value": 59, "unit": "%"}, {"measurement": "Activity", "setting": "[18]", "value": 51, "unit": "%"}, {"measurement": "Activity", "setting": "[19]", "value": 94, "unit": "%"}, {"measurement": "Activity", "setting": "[20]", "value": 88, "unit": "%"}, {"measurement": "Activity", "setting": "[21]", "value": 84, "unit": "%"}, {"measurement": "Activity", "setting": "[22]", "value": 86, "unit": "%"}, {"measurement": "Activity", "setting": "[23]", "value": 60, "unit": "%"}, {"measurement": "Activity", "setting": "[24]", "value": 103, "unit": "%"}]}
